We go through 17 molecules from the SangsterLogP compilation.

The structures appear in SMILES notation.

Consider `CNC(=O)Oc1cccc2c1OC(C)(C)C2`, for which the logP was 1.59.

On to `CC(=O)Nc1ccccn1`, for which the lipophilicity (logP) is 0.56.

Turning to `c1ccc(Oc2ccccn2)cc1`, the logP came to 2.36.

In the case of `CCC(=O)c1ccccc1`, the log partition coefficient (logP) was found to be 2.16.

In turn, `O=C1CC(C(=O)O)CC(=O)C1=C(O)C1CC1` (configuration not stated) displayed a logP of 1.42.

For `O=[N+]([O-])c1ccc(Oc2ccccc2)cc1`, the logP is 3.66.

`O=Cc1cccc(Oc2ccccc2)c1` gave a logP of 3.32.

In turn, `c1ccc(-c2ccccn2)nc1` registered a logP of 1.72.

`CNC(=O)Nc1ccc(S(=O)(=O)NC(=O)c2ccccc2OC)cc1` yielded a logP of 1.95.

As to `CC1=C(C(=O)Nc2ccccc2)SCCO1`, the logP came to 2.08.

`CC(C)Oc1cccc(NC(=O)c2ccccc2C(F)(F)F)c1`: the logP was found to be 3.59.

`CCCCc1c(C)nc(NCC)[nH]c1=O` displayed a logP of 2.23.

`Cc1cccc2sc3nncn3c12`: the logP came to 1.42.

As for `O=c1c2cc(F)ccc2nc(-n2cncn2)n1-c1ccc(Cl)cc1Cl`, the logP turned out to be 3.21.

Consider `CCOC(=O)c1cccnc1`, for which the logP stood at 1.38.

Molecule `CCCOC(=O)C(C)Oc1ccc(Oc2ccc(C(F)(F)F)cn2)cc1` (configuration not stated) yielded a logP of 4.44.

In turn, `Cc1ccc(CO)cc1` showed a logP of 1.62.
